# Test results from publication PMC8067754, “Active Transport of Hepatotoxic Pyrrolizidine Alkaloids in HepaRG Cells” (International Journal of Molecular Sciences, 2021).
# “And” between values parts separate entries of the source, which are not always exact repeats. Identical values can stand only once.
# What was measured:
# HepaRG cells [1] = experiment: PA and PANO content in cell culture medium of HepaRG cells upon pharmacological transporter inhibition (LC-MS/MS); type: in vitro ADME, human; settings: HepaRG, 2.5 µM PA, 4, 8, 24 h; CsA 10 µM, Ko143 5 µM, MK-571 50 µM, Qu 100 µM, TEA 3 mM
# Method: (§1) In the case of TEA, cells were pre-incubated 24 h prior to PA treatment. The inhibitors were applied anew at PA incubation.
# (§2) In order to measure time-dependent depletion of PA and PANO content in cell culture medium, cells were seeded at a density of 0.2 × 10^6 cells per well in a 6-well plate and cultivated as described in Section 4.2. After four weeks of cultivation, cells were adapted to serum-free medium and medium substituted with insulin, transferrin, selenium (ITS) serum extender (Capricorn Scientific, Ebsdorfergrund, Germany) 48 h prior to PA incubation for optimal LC-MS/MS measurements. […] Samples were taken after 2 h, 4 h, 8 h and 24 h.
# (§3) Briefly, chromatographic separation of PA/PANO analytes was achieved on a 50 × 2.1 mm Kinetex ™ 2.6 μm CoreShell EVO C18 100 Å column protected by a SecurityGuard ™ ULTRA EVO C 18 2.1 mm guard column (both Phenomenex, Aschaffenburg, Germany) at a flow rate of 0.4 mL/min on a Shimadzu high performance liquid chromatography (HPLC) apparatus (LC-20AB, SIL-20AC HT, CTO-20AC, CBM-20A, Duisburg, Germany) coupled to an API4000 triple quadrupole MS (Sciex, Darmstadt, Germany). The following MS parameters were used for measurements in positive electrospray ionisation (ESI+) mode: ionisation voltage 2500 V, nebuliser gas 50 psi, heating gas 50 psi, curtain gas 30 psi, temperature 600 °C, collision gas level 7. The substance specific parameters are summarized in Kaltner et al. 2019 [79].
# SLC22A1 = target: T1, SLC22A1 (Homo sapiens, UniProt O15245); experiment: ASP+ (SLC22A1 substrate) uptake measurement in HepaRG cells; type: cell-based
# T1 construct: For measuring the uptake of ASP^+ in HepaRG cells incubated with PAs; endogenous in cells; host or cells: differentiated HepaRG cells (human hepatoma)
# T1 sequence (O15245 1-554): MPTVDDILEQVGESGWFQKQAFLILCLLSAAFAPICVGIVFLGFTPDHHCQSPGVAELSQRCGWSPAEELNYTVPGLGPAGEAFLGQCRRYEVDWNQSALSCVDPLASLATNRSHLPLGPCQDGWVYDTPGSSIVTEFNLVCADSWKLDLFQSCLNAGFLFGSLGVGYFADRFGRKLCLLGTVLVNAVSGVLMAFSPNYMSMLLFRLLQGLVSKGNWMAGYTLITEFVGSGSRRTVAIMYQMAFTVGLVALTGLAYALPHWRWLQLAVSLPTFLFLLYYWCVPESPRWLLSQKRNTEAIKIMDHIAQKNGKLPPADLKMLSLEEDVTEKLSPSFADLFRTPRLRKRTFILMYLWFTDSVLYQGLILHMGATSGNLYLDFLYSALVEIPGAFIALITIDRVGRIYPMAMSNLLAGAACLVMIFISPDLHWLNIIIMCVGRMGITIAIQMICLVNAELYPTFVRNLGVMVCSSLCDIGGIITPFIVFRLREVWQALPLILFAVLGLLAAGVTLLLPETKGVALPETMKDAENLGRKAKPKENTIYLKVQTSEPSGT
# Method: ASP^+ is an organic cationic mitochondrial dye that only fluoresces inside cells so that fluorescence measured in the cell culture medium can be neglected. […] In parallel, cells were incubated with Qu (100 µM) and TEA (3 mM) as mentioned in Section 4.3. After 24 h, cells were incubated with 1 µM ASP^+ in Hanks’ balanced salt solution (HBSS, Sigma-Aldrich, Taufkirchen, Germany) at 37 °C. Fluorescence was measured after 20 min at ASP^+-specific wavelength (λex = 475 nm and λem = 605 nm) on a TecanM200Pro spectrometer (Tecan Group Ltd., Männedorf, Switzerland) according to Ahlin et al., (2008).
# [2] = Cell viability (MTT assay) of HepaRG cells with and without transporter inhibitors; type: cell-based, human; settings: human, HepaRG cells, HepaRG, no PA, inhibitor alone 24 h: CsA 10 µM, Ko143 5 µM, MK571 50 µM, Qu 100 µM, TEA 3 mM; read-out: Cell viability (MTT), percent of solvent control, Mean [%]
# Method: as §1
# (§4) To analyze the cytotoxic effects of PAs on HepaRG cells with non-inhibited and inhibited hepatic transporters, the cells were seeded at a density of 9000 cells per well in the inner 60 wells of a 96-well plate and cultivated as described in Section 4.2. After four weeks of cultivation, FBS concentration in the cell culture medium was reduced to 2% for 48 h prior incubation. Thereby, inhibitory effects of peptide growth factors from the FBS on xenobiotic-metabolizing enzymes were minimized. […] The cells were pre-incubated with pharmacological inhibitors as described in Section 4.3. […] Cell viability was analyzed via the MTT test. 10 µl MTT reagent (5 mg/mL MTT dissolved in phosphate-buffered saline, PBS) was added per well and incubated for 1 h at 37 °C. The supernatant was discarded, and the violet formazan crystals dissolved in 130 µL desorption solution (0.7% sodium dodecyl sulfate in propan-2-ol). After shaking for 20 min (under protection from light), absorbance was measured on a TecanM200Pro spectrometer (Tecan Group Ltd., Männedorf, Switzerland) at a wavelength of 570 nm, along with a reference wavelength of 630 nm.
# HepaRG cells [3] = experiment: as above; type: cell-based, human; settings: HepaRG
# Method: as §1, §4
# HepaRG cells [4] = experiment: Time-dependent PA depletion and PANO formation in cell culture medium of HepaRG cells at 37 °C and 4 °C (LC-MS/MS); settings: for PA content in cell culture medium, Mean [%]: 700 nM PA, percent of initial PA concentration; for reduction of PA content in the supernatant: after 24 h, 700 nM
# Method: as §2, §3
Structure (SMILES),effect of inhibitor on retrorsine and senecionine uptake and PANO formation (HepaRG cells [1]),"PA content in cell culture medium, Mean [%] (HepaRG cells [4]; HepaRG, 4 °C (cold), 2h)","PA content in cell culture medium, Mean [%] (HepaRG cells [4]; HepaRG, 37 °C (warm), 2h)","PA content in cell culture medium, Mean [%] (HepaRG cells [4]; HepaRG, 37 °C (warm), 4h)","reduction of PA content in the supernatant (HepaRG cells [4]; HepaRG, 37 °C)","PA in medium, Mean [%] (HepaRG cells [4]; cold, 0h)","PA in medium, single replicates (repl.) (HepaRG cells [4]; cold, 0h)","PA in medium, single replicates (repl.) (HepaRG cells [4]; cold, 2h)","PA in medium, Mean [%] (HepaRG cells [4]; cold, 4h)","PA in medium, single replicates (repl.) (HepaRG cells [4]; cold, 4h)","PA in medium, Mean [%] (HepaRG cells [4]; cold, 8h)","PA in medium, single replicates (repl.) (HepaRG cells [4]; cold, 8h)","PA in medium, single replicates (repl.) (HepaRG cells [4]; cold, 24h)","PA in medium, Mean [%] (HepaRG cells [4]; warm, 0h)","PA in medium, single replicates (repl.) (HepaRG cells [4]; warm, 0h)","PA in medium, Mean [%] (HepaRG cells [4]; warm, 2h)","PA in medium, single replicates (repl.) (HepaRG cells [4]; warm, 2h)","PA in medium, Mean [%] (HepaRG cells [4]; warm, 4h)","PA in medium, single replicates (repl.) (HepaRG cells [4]; warm, 4h)","PA in medium, Mean [%] (HepaRG cells [4]; warm, 8h)",further results
"C=C[C@H]1C[N@@]2CC[C@H]1C[C@@H]2[C@@H](O)c1ccnc2ccc(OC)cc12 [Qu, quinidine]",striking effect on both retrorsine and senecionine uptake at all time points,–,–,–,–,–,–,–,–,–,–,–,–,–,–,–,–,–,–,–,"fluorescence [%], MW [%] (SLC22A1; 100 µM, solv ctrl = 100): 82.7588%; reduction of ASP+ (SLC22A1 substrate) uptake (SLC22A1; HepaRG, 24 h, Qu 100 µM, TEA 3 mM, 1 µM ASP+): 18%; viability at 24 h [2]: 87.2%"
"COc1ccc2c3c([nH]c2c1)[C@H](CC(C)C)N1C(=O)[C@H](CCC(=O)OC(C)(C)C)NC(=O)[C@@H]1C3 [Ko143, reference compound]",did not alter retrorsine and senecionine uptake and PANO formation,–,–,–,–,–,–,–,–,–,–,–,–,–,–,–,–,–,–,–,"effect of inhibitor on PA-mediated cytotoxicity (HepaRG cells [3]; 250 µM retrorsine or senecionine, MTT, 24 h, versus 250 µM PA only): did not alter the cytotoxic effects of retrorsine and senecionine; Cell viability (MTT), percent of solvent control, Mean [%] (HepaRG cells [3]; no PA, inhibitor alone 24 h: CsA 10 µM, Ko143 5 µM, MK571 50 µM, Qu 100 µM, TEA 3 mM): 98.3595%"
"C/C=C(/C)C(=O)O[C@H]1CCN2CC=C(COC(=O)[C@@](O)([C@@H](C)O)C(C)(C)O)[C@H]12 [Heliosupine, heliosupine]",–,91.4819%,59.8398%,37.2399%,highest decline,100%,100%,95.0989% and 96.7114%,98.142%,94.7313% and 89.2662% and 110.429%,98.6729%,94.1093%,84.4985% and 86.6382%,100%,100%,66.3099%,44.4302% and 65.8608% and 88.6387%,41.9165%,27.0977% and 40.0579% and 58.5941%,15.145%,"PA content in cell culture medium, Mean [%] (HepaRG cells [4]; HepaRG, 4 °C (cold), 4h): 87.9748%; PA content in cell culture medium, Mean [%] (HepaRG cells [4]; HepaRG, 4 °C (cold), 8h): 89.7595%; PA content in cell culture medium, Mean [%] (HepaRG cells [4]; HepaRG, 4 °C (cold), 24h): 78.8823%; PA content in cell culture medium, Mean [%] (HepaRG cells [4]; HepaRG, 37 °C (warm), 0h): 95.6507%; PA content in cell culture medium, Mean [%] (HepaRG cells [4]; HepaRG, 37 °C (warm), 8h): 12.933%; PA content in cell culture medium, Mean [%] (HepaRG cells [4]; HepaRG, 37 °C (warm), 24h): 0.2071%; uptake and toxicity (grading) (HepaRG cells [4]; HepaRG, Figure 2a, toxicity grading with ref 41): strong; PA in medium, Mean [%] (HepaRG cells [4]; cold, 24h): 85.6503%; PA in medium, single replicates (repl.) (HepaRG cells [4]; warm, 8h): 8.52% and 13.2978% and 23.6169%; PA in medium, Mean [%] (HepaRG cells [4]; warm, 24h): 0.2418%; PA in medium, single replicates (repl.) (HepaRG cells [4]; warm, 24h): 0.3741% and 0.0766% and 0.2748%"
C/C=C1/C[C@@H](C)[C@](O)(CO)C(=O)OCC2=CC[N@@+]3([O-])CC[C@@H](OC1=O)[C@@H]23 [retrorsine N-oxide],–,–,–,–,–,–,–,–,–,–,–,–,–,–,–,–,–,–,–,–,"PANO formation in cell culture medium (HepaRG cells [4]; HepaRG, 37 °C, 700 nM parent PA, up to 24 h): increased with time"
"CC(C)[C@](O)(C(=O)OCC1=CCN2CC[C@@H](O)[C@@H]12)[C@@H](C)O [Lycopsamine, lycopsamine]",–,114.666%,110.255%,110.221%,only little reduction,100%,100%,94.3912% and 95.7309%,96.1322%,91.7949% and 100.05%,96.74%,94.6446% and 94.7892% and 95.0549%,89.7134% and 94.6663% and 94.1752% and 95.3538%,100%,100%,96.1576%,89.3775%,95.7481%,96.6594%,94.2429%,"PA content in cell culture medium, Mean [%] (HepaRG cells [4]; HepaRG, 4 °C (cold), 0h): 115.66%; PA in medium, Mean [%] (HepaRG cells [4]; cold, 2h): 98.8899%; PA in medium, single replicates (repl.) (HepaRG cells [4]; warm, 8h): 86.6726% and 92.5981%; PA in medium, single replicates (repl.) (HepaRG cells [4]; warm, 24h): 92.6515%"
